# Test results as given in the supplement of paper PMC3974653.
# Structures can show the parent of a compound that is named as a salt.
# Test system: MTT (mouse pheochromocytoma)
# Assay: IC50 of cell viability (ATP content)
# Settings: (24 or 48 h)
# Method in brief: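 Cells of the MTT mouse pheochromocytoma line, 5 µl per well at 200,000 cells/ml, were grown overnight at 37°C, 5% CO2 in white 1536-well plates with DMEM, 5% FBS and 1% horse serum. Pintool transfer then delivered 23 nl of library compound in DMSO, giving 8 final concentrations from 0.5 nM to 46 µM, for an exposure of 24 or 48 hrs. Luminescence from CellTiter-Glo was read after 15 minutes and referenced to positive-control wells (100%) and DMSO wells (0%). IC50 was calculated with a four-parameter logistic fit.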
row,SMILES,IC50 of cell viability
1,CCN1CCN(c2cc(-c3ccc(F)cc3)c3c(n2)CCCCCC3)CC1 [BLONANSERIN],> 46 µM
2,CC[N+]1(CC)CCC(=C(c2ccccc2)c2ccccc2)C1C (stereo not given) [PRIFINIUM BROMIDE],> 46 µM
3,"CNC(C)[C@@H](O)c1ccccc1.Cl (stereo partly drawn) [EPHEDRINE (1R,2S) HYDROCHLORIDE]",> 46 µM
4,COc1cc(N)c(Cl)cc1C(=O)NC1CCN(Cc2ccccc2)CC1 [Clebopride maleate],> 46 µM
5,CC1=C[C@@H](O)CC(C)(C)[C@@H]1/C=C/C(C)=C/C=C/C(C)=C/C=C/C=C(C)/C=C/C=C(C)/C=C/C1=C(C)C[C@H](O)CC1(C)C [LUTEIN],> 46 µM
6,CC(C)(C)C(=O)OCOC(=O)[C@@H]1[N@]2[C@@H](SC1(C)C)[C@H](\N=C/N3CCCCCC3)C2=O [Pivmecillinam hydrochloride],> 46 µM
7,CC(C)[C@H](N)C(=O)OCCOCn1cnc2c(O)nc(N)nc21 [Valacyclovir hydrochloride],> 46 µM
8,Cc1cc(-n2nc3ccc(Cl)cc3n2)c(O)c(C(C)(C)C)c1 [Bumetrizole],> 46 µM
9,COC(=O)[C@@H](N)CS [Mecisteina],> 46 µM
10,Cc1cn([C@H]2C[C@H](O)[C@@H](CO)O2)c(=O)[nH]c1=O [TELBIVUDINUM],> 46 µM
11,COc1ccc(/C=C/C(=O)c2ccc(OC)cc2OC)cc1 [Metochalcone],> 46 µM
12,O=C(O)[C@@H]1CSCN1 [TIMONACICUM],> 46 µM
13,CCCCCCCCCCCCCCCC(=O)OCC(COC(=O)CCCCCCCCCCCCCCC)OC(=O)CCCCCCCCCCCCCCC [Tripalmitin],> 46 µM
14,Oc1cccc(-c2c3nc(c(-c4cccc(O)c4)c4ccc([nH]4)c(-c4cccc(O)c4)c4nc(c(-c5cccc(O)c5)c5ccc2[nH]5)CC4)C=C3)c1 [Temoporfin],> 46 µM
15,CCCCCCCCCCCC(=O)OCC(O)CO (stereo not given) [GLYCEROL MONOLAURATE],> 46 µM
16,Br.CC(N)Cc1ccc(O)cc1 (stereo not given) [HYDROXYAMPHETAMINE HYDROBROMIDE],> 46 µM
17,O=C(O)CCCC/C=C(\c1ccccc1)c1cccnc1 [Isbogrel],> 46 µM
18,CC(Cc1ccccc1)N(C)C (stereo not given) [DIMETAMFETAMINUM],> 46 µM
19,CCCCN(CCCC)CCCOC(=O)c1ccc(N)cc1 [Butacaine],> 46 µM
20,CCCCCCCCCCCCCCCCCC(=O)O [Stearic acid],> 46 µM
21,CCc1ncnc2cc(OC)c(OC)cc12 [Quazodine],> 46 µM
22,N=C(N)c1ccc(OCCCOc2ccc(C(=N)N)cc2)cc1 [Propamidine],> 46 µM
23,CCOc1ccccc1OCCN[C@H](C)Cc1ccc(OC)c([S+](N)(=O)[O-])c1 [TAMSULOSIN HYDROCHLORIDE],> 46 µM
24,Nc1c(Cl)c(Cl)c(Cl)c(Cl)c1Cl [Pentachloroaniline],> 46 µM
25,CCN1\C=C(\C(O)=O)C(=O)C2=CC=C(C)N=C12 [Nalidixic acid],> 46 µM

row,SMILES,IC50 of cell viability
1,Cc1ccc(-c2nc3ccc(C)cn3c2CC(=O)N(C)C)cc1 [ZOLPIDEM],> 46 µM
2,C=CC[C@]1(O)CCC2C3CCC4=CCCCC4C3CCC21C (stereo not given in full) [Allylestrenol],> 46 µM
3,[O-]C(=O)C1=CC=CC=C1C(C2=CC(=C([O-])C(=C2)I)I)=C\3/C=C(I)\C(=O)\C(=C3)I [IODOPHTHALEINUM NATRICUM],> 46 µM
4,Cc1cccc(C(=O)O)c1O [HYDROXYTOLUIC ACID],> 46 µM
5,Nc1ccc([S+](=O)([O-])Nc2ccc(Cl)nn2)cc1 [Sulfachloropyridazine],> 46 µM
6,C[C@@H]1C[C@H]2[C@@H]3CCC/4=C/C(=O)/C=C\[C@]4(C)[C@@]3(F)[C@@H](O)C[C@]2(C)[C@H]1C(=O)CO [Desoximetasone],> 46 µM
7,Cc1ncc(CNC(=O)N(CCCl)N=O)c(N)n1 [NIMUSTINE],> 46 µM
8,C[C@@H](C(=O)O)c1ccc(-c2ccccc2)c(F)c1 [Flurbiprofen],> 46 µM
9,O=C1OCCN1/N=C/c1ccc([N+](=O)[O-])o1 [Furazolidone],> 46 µM
10,Cc1nnc(C(C)C)n1C1C[C@H]2CC[C@@H](C1)N2CC[C@H](NC(=O)C1CCC(F)(F)CC1)c1ccccc1 (stereo not given in full) [Maraviroc],> 46 µM
11,CNC1CC(N)[C@H](O)[C@@H](O[C@@H]2OC(CO)C3OC4(OC(C(N)CO)C(O)C(O)C4O)O[C@@H]3[C@H]2O)C1O (stereo not given in full) [HYGROMYCIN B],> 46 µM
12,COCCOC(=O)\C1=C(/C)N\C(=C(/C1C2=CC=CC(=C2)[N+]([O-])=O)C(=O)OC(C)C)C (stereo not given) [NIMODIPINE],> 46 µM
13,C=CC[N+]1(C)CCC23c4c5ccc(O)c4O[C@H]2C(=O)CC[C@@]3(O)C1C5 (stereo not given in full) [NALOXONE METHIODIDE],> 46 µM
14,O=C(O)Cc1cccc2ccccc12 [1-Naphthaleneacetic acid],> 46 µM
15,CCN1CCC[C@H]1CNC(=O)c1c(OC)ccc(Br)c1OC [REMOXIPRIDE],> 46 µM
16,O=C(CN1CCNCC1)NC1CCCCC1 [Esaprazola],> 46 µM
17,C/C(=C(/CCO)SSC[C@@H]1CCCO1)N(C=O)Cc1cnc(C)nc1N [FURSULTIAMINE HYDROCHLORIDE],> 46 µM
18,CCCCCc1ccc(C)cc1O [AMYLMETACRESOL],> 46 µM
19,OCC(O)C(O)C(O)C(O)CO (stereo not given) [galactitol],> 46 µM
20,COC1=C(OC)C2=C(CC[C@@H](NC(C)=O)C/3=C/C(=O)/C(=C/C=C23)SC)C=C1O[C@@H]4O[C@@H](CO)[C@@H](O)[C@@H](O)[C@H]4O [Thiocolchicoside],> 46 µM
21,COc1ccccc1OCCNCC(O)COc1cccc2[nH]c3ccccc3c12.O=C(O)C(O)C(O)C(=O)O (stereo not given) [CARVEDILOL TARTRATE],> 46 µM
22,O=P([O-])([O-])OC[C@@H](O)CO [POTASSIUM GLYCEROPHOSPHATE],> 46 µM
23,CC1(C)SC2C(NC(=O)C(c3ccccc3)S(=O)(=O)[O-])C(=O)N2C1C(=O)[O-] (stereo not given) [SULBENICILLIN DISODIUM],> 46 µM
24,O=[S+]([O-])(O)C(F)(F)C(F)(F)C(F)(F)C(F)(F)C(F)(F)C(F)(F)C(F)(F)C(F)(F)F [Perfluorooctane sulfonic acid],> 46 µM
25,NCCN [Ethylenediamine],> 46 µM

row,SMILES,IC50 of cell viability
1,COC(=O)[C@@H]1[C@@H]2C[C@H]3c4[nH]c5ccccc5c4CCN3C[C@@H]2CC[C@@H]1O [Yohimbine],> 46 µM
2,"Clc1ccccc1Cl [1,2-Dichlorobenzene]",> 46 µM
3,C=CCOc1ccccc1OC[C@H](O)CNC(C)C [Oxprenolol hydrochloride],> 46 µM
4,CCC(Cc1c(I)cc(I)c(O)c1I)C(=O)O (stereo not given) [Acide iophenoique],> 46 µM
5,O=c1oc2cc(O)ccc2s1 [TIOXOLONE],> 46 µM
6,CC(C)c1nc(CN(C)C(=O)NC(C(=O)NC(Cc2ccccc2)CC(O)C(Cc2ccccc2)NC(=O)OCc2cncs2)C(C)C)cs1 (stereo not given) [Ritonavir],> 46 µM
7,C[C@@]12CCC(=O)/C=C1/C=C\C3C2CC[C@]4(C)C3CC[C@@]45CCC(=O)O5 (stereo not given in full) [CANRENONE],> 46 µM
8,Nc1ccc(C(=O)Nc2ccccc2N)cc1 [Dinaline],> 46 µM
9,O=C(CCCN1CCN(c2ccc(F)cc2)CC1)NC1c2ccccc2CSc2ccccc21 (stereo not given) [MONATEPIL MALEATE],> 46 µM
10,CN[C@@H]1C[C@@H](c2ccc(Cl)c(Cl)c2)c2ccccc21.Cl [Indatraline hydrochloride],> 46 µM
11,"COc1cc(OC)cc(OC)c1 [1,3,5-TRIMETHOXYBENZENE]",> 46 µM
12,OCCN(CCO)CCO [Trolamine],> 46 µM
13,O=C1NC2CCCCN2C12CCN(CCCN1c3ccccc3CCc3ccc(Cl)cc31)CC2 (stereo not given) [Mosapramine],> 46 µM
14,C/C=C(\CC)C(=O)NC(N)=O [1-(2-ETHYLCROTONOYL)UREA],> 46 µM
15,CN(C)C(=O)Oc1ccc[n+](C)c1.[Br-] [PYRIDOSTIGMINE BROMIDE],> 46 µM
16,Cc1noc(N[S+](=O)([O-])c2ccc(N)cc2)c1C [Sulfisoxazole diolamine],> 46 µM
17,CCC1(CC)C(=O)N\C=C/C1=O [PYRITHYLDIONE],> 46 µM
18,FC(F)(F)c1cccc(C2=CCN(CCc3ccc4ccccc4c3)CC2)c1 [XALIPRODEN HYDROCHLORIDE],> 46 µM
19,CCC(=O)OC1(c2ccccc2)CCN(C)CC1 [1-Methyl-4-phenyl-4-propionoxypiperidine],> 46 µM
20,CC(=O)O[C@H](C)OC(=O)[C@@H](C)c1ccc(-c2ccccc2)c(F)c1 [Flurbiprofen Axetil],> 46 µM
21,Nc1ccc(C(=O)Oc2ccccc2)c(O)c1 [FENAMISAL],> 46 µM
22,O=C1OC(c2ccc(O)cc2)(c2ccc(O)cc2)c2ccccc21 [Phenolphthalein],> 46 µM
23,CC(C)(C)c1ccc(C(O)CCCN2CCC(C(O)(c3ccccc3)c3ccccc3)CC2)cc1 (stereo not given) [TERFENADINE],> 46 µM
24,CC(=O)O[C@H](C)OC(=O)[C@@H](C)c1ccc(-c2ccccc2)c(F)c1 [Ropiopn],> 46 µM
25,C[C@H]1NCc2cc(-c3ccc4c(=O)c(C(=O)O)cn(C5CC5)c4c3OC(F)F)ccc21 [Garenoxacin],> 46 µM
